This experiment addresses T1, INSRR (IRR) (Homo sapiens, UniProt P14616).
T1 construct: purchased Thermo Fisher Scientific (Life Technologies) SelectScreen
Put plainly: SelectScreen Z'LYTE. The class given is biochemical. The method, boiled down: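 SelectScreen broad panel; activity (Z'LYTE, Adapta) plus binding formats. ATP: Km app for CSF1R Z'LYTE; 10 for CAMK1 Adapta. Readout = % per kinase.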

This is an account of results in article PMC6934184, “Selective DNA-PKcs inhibition extends the therapeutic index of localized radiotherapy and chemotherapy” (The Journal of Clinical Investigation, 2019).

One may read the inhibition as the percentage by which the read-out fell short of the control. Read a low inhibition as little suppression.

T1 sequence (P14616 27-1297): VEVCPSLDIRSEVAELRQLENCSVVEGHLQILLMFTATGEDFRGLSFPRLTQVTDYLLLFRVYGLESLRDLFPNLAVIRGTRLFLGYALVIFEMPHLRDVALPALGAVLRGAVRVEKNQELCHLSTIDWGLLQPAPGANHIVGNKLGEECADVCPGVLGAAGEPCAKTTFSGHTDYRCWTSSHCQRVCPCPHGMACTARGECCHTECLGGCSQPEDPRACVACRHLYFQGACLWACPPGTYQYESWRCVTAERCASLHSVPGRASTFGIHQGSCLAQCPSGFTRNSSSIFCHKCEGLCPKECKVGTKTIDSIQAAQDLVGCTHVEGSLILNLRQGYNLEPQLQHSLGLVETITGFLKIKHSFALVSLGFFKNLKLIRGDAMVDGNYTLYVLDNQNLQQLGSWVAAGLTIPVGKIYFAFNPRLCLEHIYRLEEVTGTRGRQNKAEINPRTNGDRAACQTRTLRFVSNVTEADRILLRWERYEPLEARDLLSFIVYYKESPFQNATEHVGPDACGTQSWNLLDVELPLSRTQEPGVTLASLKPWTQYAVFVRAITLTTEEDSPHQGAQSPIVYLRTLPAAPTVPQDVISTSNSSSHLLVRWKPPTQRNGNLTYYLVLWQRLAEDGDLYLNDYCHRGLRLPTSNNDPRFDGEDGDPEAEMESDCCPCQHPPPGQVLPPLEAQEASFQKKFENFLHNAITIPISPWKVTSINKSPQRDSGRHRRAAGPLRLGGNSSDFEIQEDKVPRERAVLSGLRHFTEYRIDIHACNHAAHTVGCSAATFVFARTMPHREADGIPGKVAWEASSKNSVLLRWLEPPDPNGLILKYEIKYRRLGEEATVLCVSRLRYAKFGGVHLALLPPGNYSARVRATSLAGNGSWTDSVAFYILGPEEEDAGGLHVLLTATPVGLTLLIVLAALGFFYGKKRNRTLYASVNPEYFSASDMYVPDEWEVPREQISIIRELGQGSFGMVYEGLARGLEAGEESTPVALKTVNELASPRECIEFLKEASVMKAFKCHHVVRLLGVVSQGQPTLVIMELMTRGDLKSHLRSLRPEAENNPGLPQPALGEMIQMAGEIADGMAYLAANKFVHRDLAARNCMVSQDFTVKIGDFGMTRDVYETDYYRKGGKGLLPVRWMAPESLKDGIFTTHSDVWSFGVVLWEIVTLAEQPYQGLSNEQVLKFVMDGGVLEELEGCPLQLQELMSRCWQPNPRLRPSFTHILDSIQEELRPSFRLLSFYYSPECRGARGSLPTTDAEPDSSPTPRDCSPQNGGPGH

`CN(C(=O)CN1CCOCC1)c1ccc2sc3c(-c4cccc5c(=O)cc(N6CC7CCC(C6)O7)oc45)cccc3c2c1` [NU5455] gave an inhibition at 1 µM of 14.1%.
